Holding throughout (type): biochemical
One assay deals with T1, MST2(h) (Homo sapiens, UniProt Q13188).
T1 construct: purchased Millipore KinaseProfiler
T1 sequence (Q13188 1-491): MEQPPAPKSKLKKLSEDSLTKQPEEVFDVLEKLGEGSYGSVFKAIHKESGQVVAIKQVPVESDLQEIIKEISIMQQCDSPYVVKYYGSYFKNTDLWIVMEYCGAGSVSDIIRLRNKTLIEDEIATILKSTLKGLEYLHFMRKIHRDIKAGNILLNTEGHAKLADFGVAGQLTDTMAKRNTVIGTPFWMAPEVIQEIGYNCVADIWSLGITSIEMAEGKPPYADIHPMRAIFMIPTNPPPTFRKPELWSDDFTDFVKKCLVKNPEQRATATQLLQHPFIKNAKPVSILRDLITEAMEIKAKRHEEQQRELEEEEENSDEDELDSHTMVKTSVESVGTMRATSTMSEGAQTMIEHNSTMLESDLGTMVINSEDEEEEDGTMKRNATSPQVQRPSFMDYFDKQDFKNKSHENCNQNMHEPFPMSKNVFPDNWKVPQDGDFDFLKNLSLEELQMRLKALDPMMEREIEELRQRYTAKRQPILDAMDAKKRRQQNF
The assay can be described thus: Kinase panel.

The target of another assay is T2, NLK(h) (Homo sapiens, UniProt Q9UBE8).
T2 construct: purchased Millipore KinaseProfiler
T2 sequence (Q9UBE8 1-527): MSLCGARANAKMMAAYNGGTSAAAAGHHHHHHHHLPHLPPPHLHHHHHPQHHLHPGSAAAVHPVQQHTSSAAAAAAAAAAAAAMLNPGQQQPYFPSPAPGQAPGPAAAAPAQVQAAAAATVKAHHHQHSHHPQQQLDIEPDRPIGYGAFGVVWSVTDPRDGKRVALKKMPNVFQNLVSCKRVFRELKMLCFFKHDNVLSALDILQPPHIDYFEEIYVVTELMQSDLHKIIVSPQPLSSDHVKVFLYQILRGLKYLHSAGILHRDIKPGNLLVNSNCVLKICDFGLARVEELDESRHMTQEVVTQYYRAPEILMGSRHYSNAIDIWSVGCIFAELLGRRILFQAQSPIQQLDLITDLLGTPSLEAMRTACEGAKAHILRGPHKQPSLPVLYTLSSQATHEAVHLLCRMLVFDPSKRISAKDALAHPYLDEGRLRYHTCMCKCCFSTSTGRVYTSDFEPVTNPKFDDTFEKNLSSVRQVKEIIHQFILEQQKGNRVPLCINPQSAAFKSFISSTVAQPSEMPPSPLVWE
In words: Kinase panel.

The target of the next assay is T3, PDGFRα(V561D)(h) (Homo sapiens, UniProt P16234, V561D).
T3 construct: purchased Millipore KinaseProfiler
In words: Kinase panel.

A further assay addresses T4, cKit(h) (Homo sapiens, UniProt P10721).
T4 construct: purchased Millipore KinaseProfiler
The assay can be described thus: Kinase panel.

For another assay, the target named is PKA (Homo sapiens, UniProt P17612). In words: Kinase IC50 assay.
Another assay has as its target T5, LKB1(h) (Homo sapiens, UniProt Q15831).
T5 construct: purchased Millipore KinaseProfiler
T5 sequence (Q15831 1-433): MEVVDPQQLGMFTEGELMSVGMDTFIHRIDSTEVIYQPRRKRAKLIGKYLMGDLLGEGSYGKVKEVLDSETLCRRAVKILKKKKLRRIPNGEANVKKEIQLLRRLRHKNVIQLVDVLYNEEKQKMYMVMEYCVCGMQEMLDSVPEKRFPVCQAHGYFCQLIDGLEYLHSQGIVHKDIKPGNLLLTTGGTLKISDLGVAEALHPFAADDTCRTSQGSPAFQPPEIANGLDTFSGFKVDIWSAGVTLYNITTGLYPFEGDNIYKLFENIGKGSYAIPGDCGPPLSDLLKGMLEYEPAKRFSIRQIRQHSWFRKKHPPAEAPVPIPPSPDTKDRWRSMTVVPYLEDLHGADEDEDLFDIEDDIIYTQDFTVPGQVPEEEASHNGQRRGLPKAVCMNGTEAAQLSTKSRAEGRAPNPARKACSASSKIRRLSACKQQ
T5 sequence (Q7RTN6 1-431 partner): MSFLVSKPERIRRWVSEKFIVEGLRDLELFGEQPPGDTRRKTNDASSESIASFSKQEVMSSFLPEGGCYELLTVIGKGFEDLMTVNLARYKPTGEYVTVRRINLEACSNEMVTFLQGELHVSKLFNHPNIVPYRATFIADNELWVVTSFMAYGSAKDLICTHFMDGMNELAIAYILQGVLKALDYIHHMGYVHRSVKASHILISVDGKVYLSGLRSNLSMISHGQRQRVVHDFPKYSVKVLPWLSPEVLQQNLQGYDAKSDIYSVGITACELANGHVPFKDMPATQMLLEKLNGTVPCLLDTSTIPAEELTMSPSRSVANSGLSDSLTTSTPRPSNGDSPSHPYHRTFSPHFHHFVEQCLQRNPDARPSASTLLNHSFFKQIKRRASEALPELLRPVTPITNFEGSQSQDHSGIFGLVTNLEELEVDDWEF
T5 sequence (Q9Y376 1-341 partner): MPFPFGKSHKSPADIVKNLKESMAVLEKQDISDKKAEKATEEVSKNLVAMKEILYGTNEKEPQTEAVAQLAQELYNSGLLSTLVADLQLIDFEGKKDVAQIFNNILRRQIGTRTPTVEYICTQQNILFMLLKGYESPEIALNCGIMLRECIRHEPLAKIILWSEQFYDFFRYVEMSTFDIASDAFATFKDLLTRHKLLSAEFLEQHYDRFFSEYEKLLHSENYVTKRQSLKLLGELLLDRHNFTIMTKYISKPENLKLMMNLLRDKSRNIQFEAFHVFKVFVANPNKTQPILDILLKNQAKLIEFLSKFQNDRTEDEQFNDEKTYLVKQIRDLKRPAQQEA
In words: Kinase panel.

SMILES strings stand for the structures. Where two headings read alike, the source gives them in different places.

T4 sequence (P10721 26-976): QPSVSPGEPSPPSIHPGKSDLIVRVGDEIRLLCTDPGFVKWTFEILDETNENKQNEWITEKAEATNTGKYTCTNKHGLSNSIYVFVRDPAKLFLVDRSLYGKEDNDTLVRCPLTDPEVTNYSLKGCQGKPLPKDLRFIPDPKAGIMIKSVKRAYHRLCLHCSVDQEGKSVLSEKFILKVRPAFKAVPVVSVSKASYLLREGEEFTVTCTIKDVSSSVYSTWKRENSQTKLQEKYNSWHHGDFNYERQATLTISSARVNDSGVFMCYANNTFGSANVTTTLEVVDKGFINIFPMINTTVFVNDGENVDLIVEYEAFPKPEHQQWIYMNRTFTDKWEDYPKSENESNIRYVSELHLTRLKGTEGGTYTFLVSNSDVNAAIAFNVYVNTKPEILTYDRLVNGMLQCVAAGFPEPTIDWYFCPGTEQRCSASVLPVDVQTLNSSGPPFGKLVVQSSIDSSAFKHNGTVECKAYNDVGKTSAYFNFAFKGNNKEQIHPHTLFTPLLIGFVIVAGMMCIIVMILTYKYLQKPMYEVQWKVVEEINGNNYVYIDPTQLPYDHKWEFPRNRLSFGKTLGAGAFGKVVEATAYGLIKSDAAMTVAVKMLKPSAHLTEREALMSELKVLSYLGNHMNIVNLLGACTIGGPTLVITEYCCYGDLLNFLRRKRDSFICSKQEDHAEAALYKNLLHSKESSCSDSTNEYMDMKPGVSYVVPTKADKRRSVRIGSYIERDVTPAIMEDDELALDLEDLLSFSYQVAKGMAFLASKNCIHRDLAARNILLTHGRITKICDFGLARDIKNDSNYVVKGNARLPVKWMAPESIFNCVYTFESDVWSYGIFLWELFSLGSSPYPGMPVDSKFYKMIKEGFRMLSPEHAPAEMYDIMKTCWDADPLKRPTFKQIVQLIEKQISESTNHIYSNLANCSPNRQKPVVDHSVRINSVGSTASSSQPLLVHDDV
T3 sequence (P16234 24-1089 V561D): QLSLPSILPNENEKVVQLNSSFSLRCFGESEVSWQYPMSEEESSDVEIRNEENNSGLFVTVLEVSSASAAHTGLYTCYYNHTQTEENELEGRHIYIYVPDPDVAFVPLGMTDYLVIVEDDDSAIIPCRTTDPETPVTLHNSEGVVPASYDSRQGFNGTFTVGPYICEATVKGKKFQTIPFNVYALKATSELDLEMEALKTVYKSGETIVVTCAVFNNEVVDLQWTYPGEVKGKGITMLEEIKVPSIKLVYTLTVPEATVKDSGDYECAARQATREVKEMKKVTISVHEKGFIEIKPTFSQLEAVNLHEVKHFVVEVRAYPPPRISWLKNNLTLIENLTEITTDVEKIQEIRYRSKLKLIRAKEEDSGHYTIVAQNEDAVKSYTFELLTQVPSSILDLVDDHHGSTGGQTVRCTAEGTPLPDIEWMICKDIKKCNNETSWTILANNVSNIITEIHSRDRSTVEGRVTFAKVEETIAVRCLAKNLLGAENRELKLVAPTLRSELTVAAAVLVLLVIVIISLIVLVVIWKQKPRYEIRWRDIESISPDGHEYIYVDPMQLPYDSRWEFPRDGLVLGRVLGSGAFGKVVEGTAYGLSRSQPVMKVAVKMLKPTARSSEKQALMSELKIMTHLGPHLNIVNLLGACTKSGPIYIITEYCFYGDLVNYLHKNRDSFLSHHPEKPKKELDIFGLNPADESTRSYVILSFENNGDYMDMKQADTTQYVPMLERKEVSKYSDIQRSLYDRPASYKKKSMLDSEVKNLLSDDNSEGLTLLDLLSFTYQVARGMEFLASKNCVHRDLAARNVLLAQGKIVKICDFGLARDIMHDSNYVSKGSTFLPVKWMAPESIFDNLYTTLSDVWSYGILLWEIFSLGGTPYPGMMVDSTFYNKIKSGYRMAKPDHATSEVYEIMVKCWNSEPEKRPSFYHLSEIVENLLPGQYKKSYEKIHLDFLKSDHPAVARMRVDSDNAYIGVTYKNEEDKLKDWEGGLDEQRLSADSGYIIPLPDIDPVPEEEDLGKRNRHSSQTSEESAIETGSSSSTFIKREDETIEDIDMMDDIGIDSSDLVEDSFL

In general, inhibition refers to the relative decrease from the control value, in per cent. As usually defined, the IC50 is the concentration that inhibits the measured activity by half. Low readings indicate greater potency, high ones weaker potency. `Cn1ncc(Cl)c1-c1cc(C(=O)N[C@H](CN)Cc2cccc(F)c2)sc1Cl` [GSK2110183]: the inhibition at 0.5 µM against MST2(h) is -4%; against NLK(h), -8%; on PDGFRα(V561D)(h), 2%; on cKit(h), 13%; against LKB1(h) it was -2%. Also, the inhibition at 10 µM was -2% against MST2(h); 32% against NLK(h); 26% against PDGFRα(V561D)(h); 8% against cKit(h); 40% on LKB1(h). Further, at PKA, the IC50 is 1.3 nM.
As for `Cn1ncc(Cl)c1-c1cc(C(=O)N[C@H](CN)Cc2ccc(F)c(F)c2)oc1Cl` [GSK2141795], the inhibition at 0.5 µM at MST2(h) (0.5 µM, read-out: % Inhibition) was -2%; on NLK(h) (0.5 µM, read-out: % Inhibition), 4%; at PDGFRα(V561D)(h) (0.5 µM, read-out: % Inhibition), -5%; on cKit(h) (0.5 µM, read-out: % Inhibition) it was 0%; on LKB1(h) (0.5 µM, read-out: % Inhibition), -18%. For the same molecule, the inhibition at 10 µM on MST2(h) (10 µM, read-out: % Inhibition) is 4%; on NLK(h) (10 µM, read-out: % Inhibition), 46%; at PDGFRα(V561D)(h) (10 µM, read-out: % Inhibition) it was 14%; at cKit(h) (10 µM, read-out: % Inhibition) it was -1%; at LKB1(h) (10 µM, read-out: % Inhibition), 18%. The molecule further yielded an IC50 against PKA of 2 nM.

The record behind these values is article PMC4076210, “Discovery of Novel AKT Inhibitors with Enhanced Anti-Tumor Effects in Combination with the MEK Inhibitor” (PLoS ONE, 2014).
